Measured values from patent US20120128650A1, “EXTENDED ACTING OXYGEN GENERATING COMPOSITION FOR TREATING MICROBIAL INFECTIONS” (DEC INTERNATIONAL NZ LIMITED, priority 2009, published 2012).

Assays:
[1] = system: Staphylococcus aureus; assay: Growth of Staphylococcus aureus in mastitic milk, colony counts; format: cell-based; conditions: 10 micromoles per ml added at 60 minutes, oxygen-limited
Experimental: Milk was collected at the morning milking, using aseptic technique, from a quarter that had been identified as having a sub-clinical infection with a single organism. The milk was taken to the laboratory and within 2 hours of collection divided amongst sterile incubation containers. The container was either a sealed vessel that was filled so there was no head-space and could be sampled through a rubber septum (limited oxygen) or a flask with a large surface area and head space, incubated in a shaking incubator (oxygenated). Because milk is aerated during collection and handling the samples should have the same oxygen content at the start of incubation. The growth rate was determined by sampling at regular intervals, diluting into recovery diluent, plating and counting the number of colonies.

[2] = pH, oxygen and peroxide analysis after addition of coated sodium percarbonate to milk; format: physicochemical
Experimental: Sodium percarbonate coated with ethyl cellulose was added to 20 mL pasteurized and homogenized milk. The pH value (by pH Meter), the concentration of oxygen (by potentiometric electrode) and peroxide (by chemical test strips) were measured at interval sampling time, as shown in FIG. 4A-C.

Row | amount required to deliver 30 mg peroxide [2] [mg] | SMILES | number of viable organisms ([1]; after 4 hours, from around 3000 cfu per ml at 60 minutes) [cfu per ml] | number of viable organisms ([1]; at 10 hours and thereafter)
1 | – | OO [Hydrogen peroxide] | 20 | no detectable organisms
2 | 70 to 100 | O=C([O-])[O-].O=C([O-])[O-].OO.OO.OO.[Na+].[Na+].[Na+].[Na+] [sodium percarbonate] | – | –
